In publication PMC9776381, “A Large-Scale High-Throughput Screen for Modulators of SERCA Activity” (Biomolecules, 2022):
“Also recorded” adds a separate entry of the source.

Legend:
[1] = molecular target: T1, SERCA1a (rabbit light skeletal SR vesicles) (Oryctolagus cuniculus, UniProt P04191); assay: NADH-coupled Ca-ATPase activity assay, skeletal SR (CRC at pCa 5.4); assay type: biochemical; conditions: n = 3; for Skeletal SR ATPase Activity Percent Increase: maximal effect of CRC 0.05 to 50 µM, pCa 5.4, relative to DMSO, mean ± SD; for EC50: pCa 5.4, mean ± SD
T1 construct: rabbit muscles were freshly harvested from the back and hind leg of New Zealand White rabbits and purified using a sucrose gradient; from tissue; host or cells: rabbit (New Zealand White) back and hind leg skeletal muscle, light SR vesicles
T1 sequence (P04191 1-994 isoform P04191-2): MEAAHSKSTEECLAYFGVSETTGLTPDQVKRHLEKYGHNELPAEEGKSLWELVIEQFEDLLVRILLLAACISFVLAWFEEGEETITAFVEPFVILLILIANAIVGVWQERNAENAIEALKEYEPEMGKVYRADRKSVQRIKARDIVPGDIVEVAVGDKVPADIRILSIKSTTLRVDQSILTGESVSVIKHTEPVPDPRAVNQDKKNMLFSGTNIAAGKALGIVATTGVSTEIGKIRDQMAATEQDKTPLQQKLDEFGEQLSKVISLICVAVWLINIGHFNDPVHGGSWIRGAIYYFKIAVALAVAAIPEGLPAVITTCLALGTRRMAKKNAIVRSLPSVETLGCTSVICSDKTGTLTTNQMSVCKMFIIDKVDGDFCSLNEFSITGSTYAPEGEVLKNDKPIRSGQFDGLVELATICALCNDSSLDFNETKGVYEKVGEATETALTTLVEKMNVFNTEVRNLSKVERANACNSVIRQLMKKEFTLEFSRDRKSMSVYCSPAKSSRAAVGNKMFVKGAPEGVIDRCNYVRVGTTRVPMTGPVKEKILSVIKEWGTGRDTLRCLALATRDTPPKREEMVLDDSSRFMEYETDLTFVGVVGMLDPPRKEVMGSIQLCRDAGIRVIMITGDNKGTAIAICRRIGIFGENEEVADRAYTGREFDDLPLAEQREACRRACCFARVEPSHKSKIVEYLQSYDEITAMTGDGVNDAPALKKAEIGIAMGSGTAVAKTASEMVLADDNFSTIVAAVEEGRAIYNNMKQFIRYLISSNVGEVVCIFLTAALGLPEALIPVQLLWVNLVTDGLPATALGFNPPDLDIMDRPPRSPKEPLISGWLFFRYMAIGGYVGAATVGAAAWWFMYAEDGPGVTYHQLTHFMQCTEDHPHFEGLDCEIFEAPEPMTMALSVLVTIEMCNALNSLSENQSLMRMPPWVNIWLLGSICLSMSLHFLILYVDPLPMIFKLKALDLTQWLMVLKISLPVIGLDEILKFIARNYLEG
Method: (§1) For skeletal SR, rabbit muscles were freshly harvested from the back and hind leg of New Zealand White rabbits and purified using a sucrose gradient. The resulting light skeletal SR contains 80% SERCA, as a proportion of total protein content. Cardiac SR vesicles were isolated from fresh porcine left ventricular tissue.
(§2) Functional assays were performed using rabbit light skeletal sarcoplasmic (SR) vesicles. For high-throughput NADH-coupled screening, assay mix containing a final concentration of 50 mM MOPS (pH 7.0), 100 mM KCl, 1 mM EGTA, 0.2 mM NADH, 1 mM phosphoenol pyruvate, 10 IU/mL of pyruvate kinase, 10 IU/mL of lactate dehydrogenase, 1 µM of the calcium ionophore A23187, 4 µg/mL skeletal SR, and added CaCl2 to obtain pCa 5.4 was dispensed into 384-well DIVERSet assay plates containing 50 nL of compound or DMSO using a FlexDrop Precision liquid dispenser (Perkin Elmer, Waltham, Massachusetts). Plates were sealed, covered from light, and incubated at room temperature for 20 min. The assay was then started by dispensing MgATP (termed “initiation mix”), to a final concentration of 5 mM in each well (80 µL total assay volume) with the FlexDrop liquid dispenser (Perkin Elmer). The time dependence of absorbance was measured at 340 nm in a SpectraMax Plus384 microplate spectrophotometer (Molecular Devices, Sunnyvale, CA). For follow-up concentration response curves of Hit compounds, 400 nL of either compound or DMSO was dispensed into each well using an Echo liquid dispenser (Beckman Coulter). Testing dose-dependent compound effects on rabbit skeletal SR vesicles was done using the same method, as described above in 384-well plates. Determining compound effects on cardiac SR vesicles was done in a similar method as above, with the exception of 10 µg/mL of cardiac SR incubated in assay mix consisting of a final concentration of 50 mM MOPS (pH 7.0), 100 mM KCl, 1 mM EGTA, 1 µM of the calcium ionophore A23187, and added CaCl2 to the desired free calcium values. After a 20 min incubation, the “initiation mix”, containing a final concentration of 0.2 mM NADH, 1 mM phosphoenol pyruvate, 10 IU/mL of pyruvate kinase, 10 IU/mL of lactate dehydrogenase, and 5mM MgATP, was dispensed into each well.
The initial screen assay was performed with compounds at 10 µM. To better study the selected Hit compounds for their activation potential, we performed ATPase analyses (in triplicate) over a range of Hit concentrations (0.05 to 50 µM), generating concentration-response curves (CRCs) to determine maximal effects and EC50 (Figure 2). We used the same Ca^2+ concentration (pCa 5.4) as in the screening assays, thus focusing on the effects on the maximal velocity of SERCA. Two of the selected Hits yielded no response in follow-up assays, probably due to a mismatch in chemical composition between the library compound and the subsequently ordered compound (DS95401435 and DS41547941). This type of discrepancy is a typical hurdle in the screening process. Each of the other 19 compounds produced a substantial increase in ATPase activity, ranging from 30% to 72% (Table 1 and Supporting Information, Figure S1), as expected due to similarity of the CRC assay to the initial screen.

[2] = molecular target: T2, SERCA2a (cardiac SR vesicles) (Sus scrofa, UniProt P11607); assay: Oxalate-supported Ca2+-uptake assay, cardiac SR (CRC at pCa 5.4); assay type: biochemical, porcine; conditions: for Cardiac SR Ca^2+ Uptake Activity Percent Increase: maximal effect of CRC; for Cardiac SR Ca^2+ Uptake Activity Percent Increase / EC50: pCa 5.4, mean ± SD, dash = no observable effect; for Cardiac SR Ca^2+ Uptake Activity Percent Increase / EC50 / Compound classification from ATPase vs. Ca^2+ uptake CRCs, cardiac SR: n = 3; for EC50: read-out: Cardiac SR Ca^2+ Uptake Activity EC50
T2 construct: Cardiac SR vesicles were isolated from fresh porcine left ventricular tissue; from tissue; host or cells: porcine left ventricular tissue, cardiac SR vesicles
T2 sequence (P11607 1-997 isoform P11607-2): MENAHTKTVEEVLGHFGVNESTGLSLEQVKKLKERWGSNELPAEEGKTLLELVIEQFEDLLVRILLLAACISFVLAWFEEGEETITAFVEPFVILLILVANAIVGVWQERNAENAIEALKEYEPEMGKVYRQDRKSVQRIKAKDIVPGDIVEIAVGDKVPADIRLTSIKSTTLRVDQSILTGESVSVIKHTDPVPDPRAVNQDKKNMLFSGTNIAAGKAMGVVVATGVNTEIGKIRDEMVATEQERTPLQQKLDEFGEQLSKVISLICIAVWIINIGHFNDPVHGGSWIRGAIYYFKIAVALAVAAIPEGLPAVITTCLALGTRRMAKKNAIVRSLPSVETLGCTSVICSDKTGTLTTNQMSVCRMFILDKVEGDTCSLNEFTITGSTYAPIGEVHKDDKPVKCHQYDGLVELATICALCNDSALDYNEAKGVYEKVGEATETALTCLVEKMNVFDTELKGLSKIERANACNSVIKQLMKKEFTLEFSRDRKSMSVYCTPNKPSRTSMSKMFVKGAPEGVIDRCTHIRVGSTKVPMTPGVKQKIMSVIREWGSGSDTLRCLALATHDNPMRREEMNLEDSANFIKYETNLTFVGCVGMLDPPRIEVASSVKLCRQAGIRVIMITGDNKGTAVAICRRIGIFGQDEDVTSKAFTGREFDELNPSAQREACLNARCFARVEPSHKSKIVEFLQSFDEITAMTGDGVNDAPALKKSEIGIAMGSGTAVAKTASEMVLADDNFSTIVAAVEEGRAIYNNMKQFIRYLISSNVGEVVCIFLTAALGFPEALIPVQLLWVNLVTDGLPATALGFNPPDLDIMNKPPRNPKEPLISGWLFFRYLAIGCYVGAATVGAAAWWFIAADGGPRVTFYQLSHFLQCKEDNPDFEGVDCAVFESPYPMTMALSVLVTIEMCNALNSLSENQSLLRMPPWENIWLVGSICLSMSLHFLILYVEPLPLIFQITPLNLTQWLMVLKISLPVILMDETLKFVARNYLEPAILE
Method: as §1
(§3) To determine compound effect on the Ca^2+-uptake activity of SERCA1a and SERCA2a, we used an oxalate-supported assay. A solution containing 50 mM MOPS (pH 7.0), 100 mM KCl, 30 mg/mL sucrose, 1 mM EGTA, 10 mM potassium oxalate, 2 µM Fluo-4, 30 µg/mL cardiac SR vesicles or 12 μg/mL skeletal SR vesicles, and CaCl2 calculated to reach the desired free [Ca^2+] was dispensed into 384-well black walled, transparent bottomed plates (Greiner Bio-One) containing the tested small molecule and incubated at 21 °C for 20 min while covered and protected from light. To start the reaction, MgATP was added to a final concentration of 5 mM, and the decrease in 485-nm excited fluorescence was monitored at 520 nm for 15 min using a FLIPR Tetra (Molecular Devices, San Jose, CA, USA).
To determine whether the observed increases in SERCA2a ATPase activity translate to Ca^2+ uptake function, we applied our Ca^2+ transport assay to test our selected Hit compounds in cardiac SR (Table 1). Indeed, 16 of the 19 compounds yielded a clear increase in Ca^2+ uptake activity. In fact, eight compounds generated an increase at least 50% greater in cardiac SR than in skeletal SR. Three compounds had either an inhibitory or no effect on Ca^2+ transport, and two of these were also non-activating compounds in skeletal SR.

[3] = molecular target: T3, SERCA1a (skeletal SR vesicles) (Oryctolagus cuniculus, UniProt P04191); assay: Oxalate-supported Ca2+-uptake assay, skeletal SR (CRC at pCa 5.4); assay type: biochemical, rabbit; conditions: for Skeletal SR Ca^2+ Uptake Activity Percent Increase: maximal effect of CRC; for Skeletal SR Ca^2+ Uptake Activity Percent Increase / EC50: pCa 5.4, mean ± SD, dash = no observable effect; for EC50: read-out: Skeletal SR Ca^2+ Uptake Activity EC50
T3 construct: rabbit muscles were freshly harvested from the back and hind leg of New Zealand White rabbits and purified using a sucrose gradient; from tissue; host or cells: rabbit (New Zealand White) back and hind leg skeletal muscle, light SR vesicles
T3 sequence (P04191 1-994 isoform P04191-2): as the sequence (P04191 1-994 isoform P04191-2) above
Method: as §1, §3
While Ca^2+-dependent ATPase activity is a direct measure of SERCA activity, coupling of ATP hydrolysis to transport of Ca^2+ across the SR membrane is essential for the role of SERCA in cellular physiology. Therefore, we next asked whether our ATPase-based HTS assay could successfully identify compounds that also increase Ca^2+ uptake of SERCA.

[4] = molecular target: T2, SERCA2a (cardiac SR vesicles); assay: NADH-coupled Ca-ATPase activity assay, cardiac SR (CRC at pCa 5.4); assay type: biochemical, porcine; conditions: pCa 5.4, mean ± SD, n = 3; for Cardiac SR ATPase Activity Percent Increase: maximal effect of CRC
Method: as §1, §2
While initial screening was performed in skeletal SR enriched with the SERCA1a isoform, high sequence and structural homology with the cardiac SERCA2a isoform predicts a potential for cross reactivity of the Hit compounds. To test this hypothesis, we performed ATPase analyses with cardiac SR microsomes, which are enriched for SERCA2a.

Skeletal SR ATPase Activity Percent Increase [1]	EC50 [1]	Cardiac SR Ca^2+ Uptake Activity Percent Increase [2]	EC50 [2]	Skeletal SR Ca^2+ Uptake Activity Percent Increase ([3]; n = 3)	EC50 ([3]; n = 3)	Cardiac SR ATPase Activity Percent Increase [4]	EC50 [4]	Compound classification from ATPase vs. Ca^2+ uptake CRCs, cardiac SR ([2]; cardiac SR)	Compound classification from ATPase vs. Ca^2+ uptake CRCs, skeletal SR ([3]; skeletal SR, n = 3)	Ca^2+ uptake effect (in words), SR type not given ([3]; uncoupling compounds, cluster 5, tissue not stated)	Structure (SMILES)	Effect on Ca^2+ uptake activity in cardiac SR (in words) ([2]; cardiac SR, pCa 5.4)	Effect on Ca^2+ uptake activity in skeletal SR (in words) ([3]; skeletal SR, pCa 5.4)
50 ± 25%	40 ± 21 µM	32 ± 2%	37 ± 4 µM	27 ± 3%	28 ± 9 µM	42 ± 12%	31 ± 10 µM				CCC(C)N(Cc1ccc(C)cc1)Cc1nccs1 (stereo not drawn) [Compound 1]		
36 ± 2%	4 ± 0.5 µM	12 ± 1%	1.2 ± 0.2 µM	15 ± 1%	2.2 ± 0.4 µM	33 ± 3%	2.9 ± 0.6 µM				COc1ncc(CN(Cc2sccc2C)CC(C)C)cn1 [Compound 2]		
54 ± 2%	7.3 ± 0.5 µM	37 ± 3%	3.5 ± 0.7 µM	20 ± 1%	3.4 ± 0.5 µM	48 ± 4%	6.7 ± 1 µM	Improved Coupling Compounds			CCCSCC(=O)N(Cc1ccc(C)s1)C1CCCC1 [Compound 3]		
53 ± 2%	5.4 ± 0.4 µM	24 ± 1%	1.6 ± 0.3 µM	14 ± 2%	1.4 ± 0.5 µM	58 ± 4%	4.8 ± 0.6 µM				CCCN(Cc1ccccc1OC)C(=O)c1cc(C)c(C)s1 [Compound 4]		
41 ± 3%	9 ± 1 µM	16 ± 3%	1 ± 0.7 µM	10 ± 1%	1.4 ± 0.6 µM	58 ± 6%	7.7 ± 2 µM				C=CCN(Cc1ccccc1OCC)C(=O)C1CCC1 [Compound 5]		
45 ± 8%	24 ± 6 µM	17 ± 1%	3.8 ± 0.6 µM	9 ± 1%	4 ± 1 µM	63 ± 17%	29 ± 12 µM				CCCCN(Cc1ccsc1)C(=O)c1occc1C [Compound 6]		
41 ± 3%	3.6 ± 0.4 µM	24 ± 3%	1.3 ± 0.4 µM	14 ± 2%	1.4 ± 0.4 µM	51 ± 3%	2.9 ± 0.3 µM	Linked Activating Compounds			CCOC(=O)C1(CCCc2ccccc2)CCN(C(=O)CC2=CCCCC2)CC1 [Compound 7]		
45 ± 2%	4 ± 0.4 µM	18 ± 2%	0.8 ± 0.3 µM	13 ± 1%	1.3 ± 0.4 µM	43 ± 2%	3.4 ± 0.3 µM		Improved Coupling Compounds		CCOC(=O)C1(Cc2cccc(C(F)(F)F)c2)CCN(C(=O)c2sccc2C)CC1 [Compound 8]		
72 ± 2%	13.3 ± 0.7 µM	33 ± 3%	4 ± 0.8 µM	31 ± 7%	8 ± 5 µM	85 ± 5%	11 ± 1 µM	Linked Activating Compounds			CCOC(=O)C1(CCc2ccccc2)CCN(C(=O)c2occc2C)CC1 [Compound 9]		
57 ± 3%	10 ± 1 µM	16 ± 3%	1.6 ± 0.7 µM	11 ± 3%	4 ± 2 µM	55 ± 2%	7.5 ± 0.4 µM				Cc1ccc(CN(C)C(=O)CC(c2ccccc2)c2ccc3c(c2)OCO3)o1 (stereo not drawn) [Compound 10]		
61 ± 2%	7.2 ± 0.4 µM	18 ± 2%	1.2 ± 0.4 µM	9.1 ± 0.8%	1.2 ± 0.3 µM	62 ± 2%	6.4 ± 0.4 µM				Cc1ccsc1CN(C)C(=O)CC(c1ccccc1)c1ccc2c(c1)OCO2 (stereo not drawn) [Compound 11]		
41 ± 2%	3.4 ± 0.4 µM	−10 ± 3%	1.3 ± 0.1 µM	6.5 ± 0.5%	0.6 ± 0.2 µM	29 ± 1%	2.3 ± 0.3 µM	Isoform-specific uncoupler			Fc1ccc(N2CCCN(Cc3nc(C(c4ccccc4)c4ccccc4)no3)CC2)cc1 [Compound 12]	strong uncoupling effect; also recorded: inhibition of Ca^2+ uptake activity	significant activation; also recorded: small but significant increase
42 ± 4%	16 ± 3 µM					62 ± 5%	9.4 ± 1 µM			little to no Ca^2+ uptake effect	CCc1cccc(NC(=O)CCC(=O)NCc2snnc2C)c1 [Compound 17]		
